We go through 24 compounds from patent US11046686B2, “Thiadiazole IRAK4 compounds” (Gilead Sciences, Inc., priority 2018, dated 2021).

The first assay relates to TNFα. The experiment in a line: IRAK4 Monocyte TNFα Cell Based Assay. More on the design: species or system human. As to conditions: Homo sapiens, Monocyte, human monocytes; second part of Table 2, compounds 33-343; unit inferred; read-out: EC50 MONO TNF HTRF. On the procedure: IRAK4 Monocyte TNFα Cell Based Assay Procedure:
The cell suspension was then plated at a density of 5,000 cells/well onto black 384 well Greiner clear bottom plates. Plates were pre-spotted with test compounds and serially diluted in DMSO where 40 nL/well were delivered using the Echo 550 acoustic liquid dispenser (Labcyte®) for a final DMSO concentration of 0.1%. Plated cells were treated with compound for 1 hour at 37° C. Cells were then stimulated with 50 pg/ml of LPS (Sigma) excluding outside columns of plate used for unstimulated cell control wells. Cells were incubated for an additional 4 hours at 37° C. Cells were then spun out of the media and 5 μl of sample were taken and analyzed for total TNFα content using the TR-FRET Human TNFα detection system (CisBio). This system utilizes two labeled antibodies (cryptate and XL665) that bind to two different epitopes of the TNFα molecule and produce FRET signal proportional to the concentration of TNFα in the sample. Detection antibodies are mixed 50:50 and 5 μL were dispensed into each well. Plates were covered with clear seals and incubated at room temp overnight. […] Percent of control was calculated as follows: % Control=100×(Ratiosample−Ratio0% stimulation)/(Ratio100% Stimulation−Ratio0% Stimulation) where unstimulated cells (0% stimulation) were the negative control and stimulated cells (100% stimulation) were used as the positive control.
In the case of `CC(C)Nc1cc(-c2ccc3cc(C#N)cnn23)ncc1-c1nnc([C@@H]2CC[C@H]2C(C)(C)O)s1` (racemic) [Example 88, 7-(5-(5-((1,2-trans)-2-(2-hydroxypropan-2-yl)cyclobutyl)-1,3,4-thiadiazol-2-yl)-4-(isopropylamino)pyridin-2-yl)pyrrolo[1,2-b]pyridazine-3-carbonitrile], the concentration for a half-maximal effect (EC50) amounted to 27.1 nM. For `CC1(O)CCC(c2nnc(-c3cnc(-c4ccc5cc(C#N)cnn45)cc3NC3COC3)s2)CC1` (single isomer, unassigned) [Example 206, 7-(5-(5-(4-hydroxy-4-methylcyclohexyl)-1,3,4-thiadiazol-2-yl)-4-(oxetan-3-ylamino)pyridin-2-yl)pyrrolo[1,2-b]pyridazine-3-carbonitrile], the EC50 was 13.9 nM. With `CC(=O)NC1CCN(c2nnc(-c3cnc(-c4ccc5cc(C#N)cnn45)cc3NC(C)C)s2)C[C@@H]1O` (stereo in doubt) [Example 64, N-((3S,4R)-1-(5-(6-(3-cyanopyrrolo[1,2-b]pyridazin-7-yl)-4-(isopropylamino)pyridin-3-yl)-1,3,4-thiadiazol-2-yl)-3-hydroxypiperidin-4-yl)acetamide], the EC50 came to 6.9 nM.

The same assay, now with this note: human monocytes; second part of Table 2, compounds 33-343; unit inferred; read-out: EC50 MONO TNF HTRF.
Turning to `CC(=O)NC1CCC(F)(c2nnc(-c3cnc(-c4ccc5cc(C#N)cnn45)cc3NC3COC3)s2)CC1` (single isomer, unassigned) [Example 195, N-(4-(5-(6-(3-cyanopyrrolo[1,2-b]pyridazin-7-yl)-4-(oxetan-3-ylamino)pyridin-3-yl)-1,3,4-thiadiazol-2-yl)-4-fluorocyclohexy)acetamide], the EC50 came out at 334 nM. As for `CC(=O)NC1CCC(F)(c2nnc(-c3cnc(-c4ccc5cc(C#N)cnn45)cc3NC3COC3)s2)CC1` (single isomer, unassigned) [Example 196, N-(4-(5-(6-(3-cyanopyrrolo[1,2-b]pyridazin-7-yl)-4-(oxetan-3-ylamino)pyridin-3-yl)-1,3,4-thiadiazol-2-yl)-4-fluorocyclohexy)acetamide], the EC50 came to 107 nM. Turning to `CC(=O)N1CCN(c2nnc(-c3cnc(-c4ccc5cc(C#N)cnn45)cc3NC(C)C)s2)CC1` [Compound 232, 7-(5-(5-(4-acetylpiperazin-l-yl)-1,3,4-thiadiazol-2-yl)-4-(isopropylamino)pyridin-2-yl)pyrrolo[1,2-b]pyridazine-3-carbonitrile], the EC50 was determined as 7.4 nM.

Regarding `CC(=O)N[C@@H]1[C@@H]2CN(c3nnc(-c4cnc(-c5ccc6cc(C#N)cnn56)cc4NC(C)C)s3)C[C@@H]21` [Compound 239, N-((1R,5S,6r)-3-(5-(6-(3-cyanopyrrolo[1,2-b]pyridazin-7-yl)-4-(isopropylamino)pyridin-3-yl)-1,3,4-thiadiazol-2-yl)-3-azabicyclo[3.1.0]hexan-6-yl)acetamide], the EC50 turned out to be 4.9 nM. `CC(=O)N[C@H]1[C@@H]2CN(c3nnc(-c4cnc(-c5ccc6cc(C#N)cnn56)cc4NC(C)C)s3)C[C@@H]21` [Compound 240, N-((1R,5S,6s)-3-(5-(6-(3-cyanopyrrolo[1,2-b]pyridazin-7-yl)-4-(isopropylamino)pyridin-3-yl)-1,3,4-thiadiazol-2-yl)-3-azabicyclo[3.1.0]hexan-6-yl)acetamide]: the EC50 amounted to 8.9 nM. Consider `CC(=O)NC1CCC(c2nnc(-c3cnc(-c4ccc5cc(C#N)cnn45)cc3NC34CCC(O)(CC3)CC4)s2)CC1` (stereo not drawn) [Compound 241, N-((1r,4r)-4-(5-(6-(3-cyanopyrrolo[1,2-b]pyridazin-7-yl)-4-((4-hydroxybicyclo[2.2.2]octan-1-yl)amino)pyridin-3-yl)-1,3,4-thiadiazol-2-yl)cyclohexyl)acetamide], for which the EC50 is 4.8 nM. The same measure, in the same setting: in the case of `CC(=O)N[C@H]1CC[C@H](c2nnc(-c3cnc(-c4ccc5cc(C#N)cnn45)cc3N[C@H]3C[C@@](C)(O)C3)s2)CC1` [Compound 243, N-((1R,4r)-4-(5-(6-(3-cyanopyrrolo[1,2-b]pyridazin-7-yl)-4-(((1s,3S)-3-hydroxy-3-methylcyclobutyl)amino)pyridin-3-yl)-1,3,4-thiadiazol-2-yl)cyclohexyl)acetamide] it was 6.4 nM; in that of `CC(=O)N[C@H]1CC[C@H](c2nnc(-c3cnc(-c4ccc5cc(C#N)cnn45)cc3N[C@H]3CCC[C@@H](O)C3)s2)CC1` [Compound 245, N-((1S,4r)-4-(5-(6-(3-cyanopyrrolo[1,2-b]pyridazin-7-yl)-4-(((1S,3R)-3-hydroxycyclohexyl)amino)pyridin-3-yl)-1,3,4-thiadiazol-2-yl)cyclohexyl)acetamide], 3.2 nM. As for `CC(=O)N[C@H]1CC[C@H](c2nnc(-c3cnc(-c4ccc5cc(C#N)cnn45)cc3NC3CCOCC3)s2)CC1` [Compound 255, N-((1r,4r)-4-(5-(6-(3-cyanopyrrolo[1,2-b]pyridazin-7-yl)-4-((tetrahydro-2H-pyran-4-yl)amino)pyridin-3-yl)-1,3,4-thiadiazol-2-yl)cyclohexyl)acetamide], the half-maximal effective concentration (EC50) is 5.1 nM. Take `CC(=O)N1C2CC1CN(c1nnc(-c3cnc(-c4ccc5cc(C#N)cnn45)cc3NC(C)C)s1)C2` [Compound 258, 7-(5-(5-(6-acetyl-3,6-diazabicyclo[3.1.1]heptan-3-yl)-1,3,4-thiadiazo1-2-yl)-4-(isopropylamino)pyridin-2-yl)pyrrolo[1,2-b]pyridazine-3-carbonitrile]: the EC50 is 5.8 nM. As to `CC(=O)N1CC2CCC(C1)N2c1nnc(-c2cnc(-c3ccc4cc(C#N)cnn34)cc2NC(C)C)s1` [Compound 260, 7-(5-(5-(3-acety1-3,8-diazabicyclo[3.2.1]octan-8-yl)-1,3,4-thiadiazol-2-yl)-4-(isopropylamino)pyridin-2-yl)pyrrolo[1,2-b]pyridazine-3-carbonitrile], the EC50 worked out at 15.8 nM. Turning to `CC(=O)N1CC2CC(C1)N2c1nnc(-c2cnc(-c3ccc4cc(C#N)cnn34)cc2NC(C)C)s1` [Compound 261, 7-(5-(5-(3-acety1-3,6-diazabicyclo[3.1.1]heptan-6-yl)-1,3,4-thiadiazol-2-yl)-4-(isopropylamino)pyridin-2-yl)pyrrolo[1,2-b]pyridazine-3-carbonitrile], the 50% effective concentration (EC50) amounted to 18.3 nM. Same read-out and setting: in the case of `CC(C)Nc1cc(-c2ccc3cc(C#N)cnn23)ncc1-c1nnc(N2CCS(=N)(=O)CC2)s1` [Compound 262, 7-(5-(5-(1-imino-1-oxido-116-thiomorpholino)-1,3,4-thiadiazo1-2-yl)-4-(isopropylamino)pyridin-2-yl)pyrrolo[1,2-b]pyridazine-3-carbonitrile] it was 69.9 nM; in that of `CC(=O)N1C2CCC1CN(c1nnc(-c3cnc(-c4ccc5cc(C#N)cnn45)cc3NC3(C)COC3)s1)C2` [Compound 264], 2.7 nM. As for `CC(=O)N1C[C@H]2COC[C@@H](C1)N2c1nnc(-c2cnc(-c3ccc4cc(C#N)cnn34)cc2NC(C)C)s1` [Compound 266], the EC50 was determined as 3.2 nM. Regarding `CC(=O)N[C@H]1CC[C@H](c2nnc(-c3cnc(-c4ccc5cc(C#N)cnn45)cc3NC3(C)CCOCC3)s2)CC1` [Compound 268, N-((1r,4r)-4-(5-(6-(3-cyanopyrrolo[1,2-b]pyridazin-7-yl)-4-((4-methyltetrahydro-2H-pyran-4-yl)amino)pyridin-3-yl)-1,3,4-thiadiazol-2-yl)cyclohexyl)acetamide], the EC50 is 14.1 nM.

For `CC(=O)N1[C@@H]2COC[C@H]1CN(c1nnc(-c3cnc(-c4ccc5cc(C#N)cnn45)cc3NC3CCOCC3)s1)C2` [Compound 269, 7-(5-(5-((1R,5S)-9-acety1-3-oxa-7,9-diazabicyclo[3.3.1]nonan-7-yl)-1,3,4-thiadiazol-2-yl)-4-((tetrahydro-2H-pyran-4-yl)amino)pyridin-2-yl)pyrrolo[1,2-b]pyridazine-3-carbonitrile], the half-maximal effective concentration (EC50) was determined as 5.8 nM. Turning to `CC(=O)N[C@@H]1[C@@H]2CC[C@H]1CN(c1nnc(-c3cnc(-c4ccc5cc(C#N)cnn45)cc3NC3(C)CCOCC3)s1)C2` [Compound 272, N-((1R,5S,8s)-3-(5-(6-(3-cyanopyrrolo[1,2-b]pyridazin-7-yl)-4-((4-methyltetrahydro-2H-pyran-4-yl)amino)pyridin-3-yl)-1,3,4-thiadiazol-2-yl)-3-azabicyclo[3.2.1]octan-8-yl)acetamide], the EC50 came out at 4.1 nM.

On to `CC(C)Nc1cc(-c2ccc3cc(C#N)cnn23)ncc1-c1nnc(N2C3CC2CN(C(=O)CN=S(C)(C)=O)C3)s1` [Compound 276, 7-(5-(5-(3-(2-((dimethyl(oxo)-16-sulfanylidene)amino)acetyl)-3,6-diazabicyclo[3.1.1]heptan-6-yl)-1,3,4-thiadiazol-2-yl)-4-(isopropylamino)pyridin-2-yl)pyrrolo[1,2-b]pyridazine-3-carbonitrile], for which the EC50 turned out to be 7.8 nM. For `CC(=O)N[C@H]1C[C@H](c2nnc(-c3cnc(-c4ccc5cc(C#N)cnn45)cc3NC(C)C)s2)C1` [Compound 278, N-((1r,3r)-3-(5-(6-(3-cyanopyrrolo[1,2-b]pyridazin-7-yl)-4-(isopropylamino)pyridin-3-yl)-1,3,4-thiadiazol-2-yl)cyclobutyl)acetamide], the concentration giving a half-maximal response (EC50) came out at 10000 nM.

Take `CC(=O)N[C@H]1C[C@@H](c2nnc(-c3cnc(-c4ccc5cc(C#N)cnn45)cc3NC(C)C)s2)C1` [Compound 279, N-((1s,3s)-3-(5-(6-(3-cyanopyrrolo[1,2-b]pyridazin-7-yl)-4-(isopropylamino)pyridin-3-yl)-1,3,4-thiadiazol-2-yl)cyclobutyl)acetamide]: the EC50 was 15.9 nM.

In general, EC50 refers to the midpoint of the concentration-response curve.
